Source: ChEMBL document CHEMBL1148057, “1'-(2-Phenyl-ethylene)-ditryptophenaline, a new dimeric diketopiperazine from Aspergillus flavus” (J Nat Prod, 1994)
The source made the active and inactive calls. No cut-off for these calls is given here.

How the values were obtained:
Substance-P receptor [1] = target: T1, Substance-P receptor (Homo sapiens, UniProt P25103); test: Inhibition of substance P receptor
Substance-P receptor [2] = target: T1, Substance-P receptor; test: Inhibition of substance P receptor at 100 uM

T1 sequence (P25103 whole entry): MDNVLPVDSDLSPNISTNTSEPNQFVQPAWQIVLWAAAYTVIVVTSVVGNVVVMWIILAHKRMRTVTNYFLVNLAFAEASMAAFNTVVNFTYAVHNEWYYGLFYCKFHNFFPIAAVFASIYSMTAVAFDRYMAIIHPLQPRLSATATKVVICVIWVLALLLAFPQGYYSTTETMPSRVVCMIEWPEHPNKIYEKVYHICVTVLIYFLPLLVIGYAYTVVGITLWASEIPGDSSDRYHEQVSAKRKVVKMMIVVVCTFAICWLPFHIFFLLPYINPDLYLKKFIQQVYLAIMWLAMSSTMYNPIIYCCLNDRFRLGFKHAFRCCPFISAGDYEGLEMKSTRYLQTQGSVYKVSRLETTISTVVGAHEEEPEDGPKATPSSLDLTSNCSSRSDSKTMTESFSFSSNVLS

| Activity (Substance-P receptor [2]) | SMILES | IC50 (Substance-P receptor [1]) [µM] |
| --- | --- | --- |
| – | O=C1N[C@@H](Cc2ccccc2)C(=O)N2[C@H]3Nc4ccccc4[C@@]3([C@]34C[C@H]5C(=O)N[C@@H](Cc6ccccc6)C(=O)N5[C@H]3Nc3ccccc34)C[C@@H]12 | 0.23 |
| – | CN1C(=O)[C@@H]2C[C@@]3([C@@]45C[C@H]6C(=O)N(C)[C@@H](Cc7ccccc7)C(=O)N6[C@@H]4Nc4ccccc45)c4ccccc4N[C@H]3N2C(=O)[C@@H]1Cc1ccccc1 [DITRYPTOPHENALINE] | 12 |
| inactive | CN1C(=O)[C@@H]2C[C@@]3([C@@]45C[C@H]6C(=O)N(C)[C@@H](Cc7ccccc7)C(=O)N6[C@@H]4N(/C=C/c4ccccc4)c4ccccc45)c4ccccc4N[C@H]3N2C(=O)[C@@H]1Cc1ccccc1 | – |
